Read-outs that look alike come from different tables or passages of the source.
How the values were obtained:
Experiment in all cases: Test F pre-/postemergence plant response
Format in all cases: in vivo
[1] = tested on: Brazilian crabgrass (Digitaria horizontalis); details: Digitaria horizontalis, scale 0 to 100, read-out: Plant response rating, Crabgrass, Brazil
From the text: (§1) Seeds of plant species selected from corn (Zea mays), soybean (Glycine max), velvetleaf (Abutilon theophrasti), lambsquarters (Chenopodium album), wild poinsettia (Euphorbia heterophylla), palmer pigweed (Amaranthus palmeri), waterhemp (common waterhemp, Amaranthus rudis), surinam grass (Brachiaria decumbens), large (Lg) crabgrass (Digitaria sanguinalis), Brazilian crabgrass (Digitaria horizontalis), fall panicum (Panicum dichotomiflorum), giant foxtail (Setaria faberii), green foxtail (Setaria viridis), goosegrass (Eleusine indica), johnsongrass (Sorghum halepense), ragweed (common ragweed, Ambrosia elatior), barnyardgrass (Echinochloa crus-galli), sandbur (southern sandbur, Cenchrus echinatus), arrowleaf sida (Sida rhombifolia), Italian ryegrass (Lolium multiflorum), dayflower (Virginia (VA) dayflower, Commelina virginica), field bindweed (Convolvulus arvensis), cocklebur (common cocklebur, Xanthium strumarium), momingglory (Ipomoea coccinea), nightshade (eastern black nightshade, Solanum ptycanthum), kochia (Kochia scoparia), yellow nutsedge (Cyperus esculentus), and hairy beggarticks (Bidens pilosa), were planted into a silt loam soil and treated preemergence with test chemicals formulated in a non-phytotoxic solvent mixture which included a surfactant.
(§2) At the same time, plants from these crop and weed species and also waterhemp_RES1, (ALS & Triazine resistant common waterhemp, Amaranthus rudis), and waterhemp_RES2, (ALS & HPPD resistant common waterhemp, Amaranthus rudis) were treated with postemergence applications of test chemicals formulated in the same manner. Plants ranged in height from 2 to 18 cm for postemergence treatments (1- to 4-leaf stage).
(§3) Treated plants and controls were maintained in a greenhouse for 14 to 21 days, after which time all species were compared to controls and visually evaluated. Plant response ratings, summarized in Table F, are based on a scale of 0 to 100 where 0 is no effect and 100 is complete control. A dash (-) response means no test result.

[2] = tested on: Italian ryegrass (Lolium multiflorum); details: Lolium multiflorum, scale 0 to 100, read-out: Plant response rating, Ryegrass, Italian; for pest or weed control at 16 g/ha: 16 g ai/ha; for pest or weed control at 31 g/ha: 31 g ai/ha; for pest or weed control at 125 g/ha: 125 g ai/ha
From the text: as §1, §2, §3

[3] = tested on: barnyardgrass (Echinochloa crus-galli); details: Echinochloa crus-galli, scale 0 to 100, read-out: Plant response rating, Barnyardgrass
From the text: as §1, §2, §3

[4] = tested on: dayflower (Virginia (VA) dayflower, Commelina virginica); details: Commelina virginica, scale 0 to 100, read-out: Plant response rating, Dayflower, VA
From the text: as §1, §2, §3

[5] = tested on: green foxtail (Setaria viridis); details: Setaria viridis, pre-emergence, scale 0 to 100, read-out: Plant response rating, Foxtail, Green
From the text: as §1, §2, §3

[6] = tested on: hairy beggarticks (Bidens pilosa); details: Bidens pilosa, scale 0 to 100, read-out: Plant response rating, Beggarticks
From the text: as §1, §2, §3

[7] = tested on: johnsongrass (Sorghum halepense); details: Sorghum halepense, pre-emergence, scale 0 to 100, read-out: Plant response rating, Johnsongrass
From the text: as §1, §2, §3

[8] = tested on: lambsquarters (Chenopodium album); details: Chenopodium album, pre-emergence, scale 0 to 100, read-out: Plant response rating, Lambsquarters
From the text: as §1, §2, §3

[9] = tested on: large (Lg) crabgrass (Digitaria sanguinalis); details: Digitaria sanguinalis, pre-emergence, scale 0 to 100, read-out: Plant response rating, Crabgrass, Large
From the text: as §1, §2, §3

[10] = tested on: morningglory (Ipomoea coccinea); details: Ipomoea, pre-emergence, scale 0 to 100, read-out: Plant response rating, Morningglory
From the text: as §1, §2, §3

[11] = tested on: nightshade (eastern black nightshade, Solanum ptycanthum); details: Solanum, pre-emergence, scale 0 to 100, read-out: Plant response rating, Nightshade
From the text: as §1, §2, §3

[12] = tested on: ragweed (common ragweed, Ambrosia elatior); details: Ambrosia artemisiifolia, pre-emergence, scale 0 to 100, read-out: Plant response rating, Ragweed
From the text: as §1, §2, §3

[13] = tested on: sandbur (southern sandbur, Cenchrus echinatus); details: Cenchrus echinatus, scale 0 to 100, read-out: Plant response rating, Sandbur
From the text: as §1, §2, §3

[14] = tested on: waterhemp (common waterhemp, Amaranthus rudis); details: Amaranthus tuberculatus, scale 0 to 100, read-out: Plant response rating, Waterhemp
From the text: as §1, §2, §3

[15] = tested on: wild poinsettia (Euphorbia heterophylla); details: Euphorbia heterophylla, scale 0 to 100, read-out: Plant response rating, Poinsettia, Wild
From the text: as §1, §2, §3

[16] = tested on: yellow nutsedge (Cyperus esculentus); details: Cyperus, pre-emergence, scale 0 to 100, read-out: Plant response rating, Nutsedge, Yellow
From the text: as §1, §2, §3

[17] = post-emergence, 8 g ai/ha Postemergence
[18] = post-emergence, 16 g ai/ha Postemergence
[19] = post-emergence, 31 g ai/ha Postemergence
[20] = post-emergence, 62 g ai/ha Postemergence
[21] = post-emergence, 125 g ai/ha Postemergence
[22] = pre-emergence, 8 g ai/ha Preemergence
[23] = pre-emergence, 16 g ai/ha Preemergence
[24] = pre-emergence, 31 g ai/ha Preemergence
[25] = pre-emergence, 62 g ai/ha Preemergence
[26] = pre-emergence, 125 g ai/ha Preemergence

SMILES: FC(F)c1cc(-c2ccccc2Oc2ncc(Cl)cn2)on1 [Compound 53, 5-chloro-2-[2-[3-(difluoromethyl)-5-isoxazolyl]phenoxy]pyrimidine]
- pest or weed control at 8 g/ha [1, 17]: 0%
- pest or weed control at 16 g/ha [1, 18]: 10%
- pest or weed control at 31 g/ha [1, 19]: 15%
- pest or weed control at 62 g/ha [1, 20]: 20%
- pest or weed control at 125 g/ha [1, 21]: 20%
- pest or weed control at 8 g/ha [1, 22]: 0%
- pest or weed control at 16 g/ha [1, 23]: 0%
- pest or weed control at 31 g/ha [1, 24]: 5%
- pest or weed control at 62 g/ha [1, 25]: 85%
- pest or weed control at 125 g/ha [1, 26]: 90%
- pest or weed control at 8 g/ha [2, 17]: 0%
- pest or weed control at 16 g/ha ([2]; post-emergence, Postemergence): 0%
- pest or weed control at 31 g/ha ([2]; post-emergence, Postemergence): 0%
- pest or weed control at 62 g/ha ([2]; post-emergence, 62 g ai/ha, Postemergence): 5%
- pest or weed control at 125 g/ha ([2]; post-emergence, Postemergence): 0%
- pest or weed control at 8 g/ha [2, 22]: 0%
- pest or weed control at 16 g/ha ([2]; pre-emergence, Preemergence): 0%
- pest or weed control at 31 g/ha ([2]; pre-emergence, Preemergence): 0%
- pest or weed control at 125 g/ha ([2]; pre-emergence, Preemergence): 0%
- pest or weed control at 62 g/ha ([2]; pre-emergence, Preemergence): 0%
- pest or weed control at 8 g/ha [3, 17]: 0%
- pest or weed control at 16 g/ha [3, 18]: 0%
- pest or weed control at 31 g/ha [3, 19]: 0%
- pest or weed control at 62 g/ha [3, 20]: 0%
- pest or weed control at 125 g/ha [3, 21]: 10%
- pest or weed control at 8 g/ha [3, 22]: 0%
- pest or weed control at 16 g/ha [3, 23]: 0%
- pest or weed control at 31 g/ha [3, 24]: 0%
- pest or weed control at 62 g/ha [3, 25]: 20%
- pest or weed control at 125 g/ha [3, 26]: 50%
- pest or weed control at 8 g/ha [4, 17]: 30%
- pest or weed control at 16 g/ha [4, 18]: 40%
- pest or weed control at 31 g/ha [4, 19]: 30%
- pest or weed control at 62 g/ha [4, 20]: 50%
- pest or weed control at 125 g/ha [4, 21]: 60%
- pest or weed control at 8 g/ha [4, 22]: 0%
- pest or weed control at 16 g/ha [4, 23]: 0%
- pest or weed control at 31 g/ha [4, 24]: 0%
- pest or weed control at 62 g/ha [4, 25]: 50%
- pest or weed control at 125 g/ha [4, 26]: 95%
- pest or weed control at 8 g/ha ([5]; 8 g ai/ha Preemergence): 0%
- pest or weed control at 16 g/ha ([5]; 16 g ai/ha, Preemergence): 0%
- pest or weed control at 31 g/ha ([5]; 31 g ai/ha, Preemergence): 0%
- pest or weed control at 125 g/ha ([5]; 125 g ai/ha, Preemergence): 90%
- pest or weed control at 62 g/ha ([5]; Preemergence): 20%
- pest or weed control at 8 g/ha [6, 17]: 15%
- pest or weed control at 16 g/ha [6, 18]: 30%
- pest or weed control at 31 g/ha [6, 19]: 40%
- pest or weed control at 62 g/ha [6, 20]: 50%
- pest or weed control at 125 g/ha [6, 21]: 60%
- pest or weed control at 8 g/ha [6, 22]: 0%
- pest or weed control at 16 g/ha [6, 23]: 0%
- pest or weed control at 31 g/ha [6, 24]: 0%
- pest or weed control at 62 g/ha [6, 25]: 30%
- pest or weed control at 125 g/ha [6, 26]: 20%
- pest or weed control at 8 g/ha ([7]; 8 g ai/ha Preemergence): 0%
- pest or weed control at 16 g/ha ([7]; 16 g ai/ha Preemergence): 0%
- pest or weed control at 31 g/ha ([7]; 31 g ai/ha Preemergence): 0%
- pest or weed control at 125 g/ha ([7]; 125 g ai/ha Preemergence): 5%
- pest or weed control at 62 g/ha ([7]; Preemergence): 0%
- pest or weed control at 8 g/ha ([8]; 8 g ai/ha Preemergence): 65%
- pest or weed control at 16 g/ha ([8]; 16 g ai/ha, Preemergence): 65%
- pest or weed control at 31 g/ha ([8]; 31 g ai/ha, Preemergence): 95%
- pest or weed control at 125 g/ha ([8]; 125 g ai/ha, Preemergence): 98%
- pest or weed control at 62 g/ha ([8]; Preemergence): 95%
- pest or weed control at 8 g/ha ([9]; 8 g ai/ha Preemergence): 0%
- pest or weed control at 16 g/ha ([9]; 16 g ai/ha Preemergence): 0%
- pest or weed control at 31 g/ha ([9]; 31 g ai/ha Preemergence): 15%
- pest or weed control at 62 g/ha ([9]; 62 g ai/ha Preemergence): 80%
- pest or weed control at 125 g/ha ([9]; 125 g ai/ha Preemergence): 98%
- pest or weed control at 8 g/ha ([10]; 8 g ai/ha Preemergence): 0%
- pest or weed control at 16 g/ha ([10]; 16 g ai/ha Preemergence): 0%
- pest or weed control at 31 g/ha ([10]; 31 g ai/ha Preemergence): 0%
- pest or weed control at 125 g/ha ([10]; 125 g ai/ha Preemergence): 0%
- pest or weed control at 62 g/ha ([10]; Preemergence): 0%
- pest or weed control at 16 g/ha ([11]; 16 g ai/ha Preemergence): 35%
- pest or weed control at 31 g/ha ([11]; 31 g ai/ha Preemergence): 90%
- pest or weed control at 125 g/ha ([11]; 125 g ai/ha Preemergence): 98%
- pest or weed control at 62 g/ha ([11]; Preemergence): 98%
- pest or weed control at 8 g/ha ([12]; 8 g ai/ha Preemergence): 0%
- pest or weed control at 16 g/ha ([12]; 16 g ai/ha Preemergence): 0%
- pest or weed control at 31 g/ha ([12]; 31 g ai/ha Preemergence): 0%
- pest or weed control at 125 g/ha ([12]; 125 g ai/ha Preemergence): 40%
- pest or weed control at 62 g/ha ([12]; Preemergence): 30%
- pest or weed control at 8 g/ha [13, 17]: 0%
- pest or weed control at 16 g/ha [13, 18]: 0%
- pest or weed control at 31 g/ha [13, 19]: 0%
- pest or weed control at 62 g/ha [13, 20]: 5%
- pest or weed control at 125 g/ha [13, 21]: 10%
- pest or weed control at 8 g/ha [13, 22]: 0%
- pest or weed control at 16 g/ha [13, 23]: 0%
- pest or weed control at 31 g/ha [13, 24]: 0%
- pest or weed control at 125 g/ha [13, 26]: 0%
- pest or weed control at 62 g/ha ([13]; pre-emergence, Preemergence): 0%
- pest or weed control at 8 g/ha [14, 17]: 80%
- pest or weed control at 16 g/ha [14, 18]: 95%
- pest or weed control at 31 g/ha [14, 19]: 98%
- pest or weed control at 62 g/ha [14, 20]: 100%
- pest or weed control at 125 g/ha [14, 21]: 100%
- pest or weed control at 8 g/ha [14, 22]: 0%
- pest or weed control at 16 g/ha [14, 23]: 0%
- pest or weed control at 31 g/ha [14, 24]: 95%
- pest or weed control at 125 g/ha [14, 26]: 100%
- pest or weed control at 62 g/ha ([14]; pre-emergence, Preemergence): 100%
- pest or weed control at 8 g/ha [15, 17]: 50%
- pest or weed control at 16 g/ha [15, 18]: 50%
- pest or weed control at 31 g/ha [15, 19]: 60%
- pest or weed control at 62 g/ha [15, 20]: 70%
- pest or weed control at 125 g/ha [15, 21]: 70%
- pest or weed control at 8 g/ha [15, 22]: 0%
- pest or weed control at 16 g/ha [15, 23]: 0%
- pest or weed control at 31 g/ha [15, 24]: 0%
- pest or weed control at 125 g/ha [15, 26]: 0%
- pest or weed control at 62 g/ha ([15]; pre-emergence, Preemergence): 0%
- pest or weed control at 8 g/ha ([16]; 8 g ai/ha Preemergence): 0%
- pest or weed control at 16 g/ha ([16]; 16 g ai/ha Preemergence): 0%
- pest or weed control at 31 g/ha ([16]; 31 g ai/ha Preemergence): 0%
- pest or weed control at 125 g/ha ([16]; 125 g ai/ha Preemergence): 20%
- pest or weed control at 62 g/ha ([16]; Preemergence): 0%
